# From patent US7479507B2, “Anti-inflammatory substituted phenols and elastomeric compositions for oral delivery of drugs” (priority 2003, dated 2009)
# Assays:
# rats = details: >2.35 mg/l air aerosol, mostly (~80%) particles smaller than 7 μm; cited from earlier work
# carp = details: 0.3-3 ppm; cited from earlier work
# rat [1] = details: cited from earlier work
# Chinese hamster = details: cited from earlier work
# rat [2] = details: cited from earlier work; remark: listed apart in the source
# [3] = tested on: dogs diagnosed with arthritis or chronic or degenerative joint disease; assay: Owner-reported mobility of dogs with arthritis or chronic or degenerative joint disease, daily oral dosing, placebo-controlled; format: in vivo, dog
# Description: The experiments below were performed on dogs after the informed consent of their owners was obtained. […] The specified compound was administered orally once a day with the dog's meal. […] The owners reported weekly any change in the ability of their dog to stand up, walk, run, climb and descend stairs, get on and off a bed, sofa, or chair, get into and out of a car, their limping and behavior.
compound,measurement,setting,value
"calcium salt of the monoethyl ester of (((3,5-bis(1,1-dimethylethyl)-4-hydroxyphenyl)methyl) phosphonic acid [Compound 1]",deaths after 4 hour inhalation,rats,no deaths
same,bioconcentration (accumulation),carp,No bioconcentration (accumulation) was detected
same,intraperitoneal LD50,rat [1],662 mg/kg
same,oral LD50,Chinese hamster,exceeds 2000 mg/kg
same,oral LD50,rat [2],exceeds 6000 mg/kg
same,change in dog's condition,"[3]; Example 7, 33 lb Kelpie-mix, about 10 mg daily oral capsule, 4th week",condition continued to improve
same,change in dog's condition,"[3]; Example 7, 33 lb Kelpie-mix, about 10 mg daily oral capsule, after 2 weeks","moved smoothly, had less difficulty getting out of the car or off the sofa, ran better and more often, and was more active"
same,change in dog's condition,"[3]; Example 7, 33 lb Kelpie-mix, about 10 mg daily oral capsule, after 3 weeks","freely getting off the bed, down from the sofa and out of the car"
same,change in dog's condition,"[3]; Example 7, 33 lb Kelpie-mix, arthritis of shoulders and elbow, about 10 mg daily oral capsule, after 1 week",got down the sofa and out of the car more easily
same,change in dog's condition,"[3]; Example 8, 13 lb miniature Poodle, about 10 mg daily oral capsule, after 3 weeks",ran frequently and jumped up on the sofa without hesitation
same,change in dog's condition,"[3]; Example 8, 13 lb miniature Poodle, about 10 mg daily oral capsule, after 4 weeks",climbing and running freely
same,change in dog's condition,"[3]; Example 8, 13 lb miniature Poodle, unknown disease, about 10 mg daily oral capsule, after two weeks",climbed stairs with less hesitation and ran occasionally
same,change in dog's condition,"[3]; Example 9, 85 lb Labrador retriever, about 15 mg Compound 1 daily capsule and Rimadyl, after 1 week",stood up without assistance and limped less
same,change in dog's condition,"[3]; Example 9, 85 lb Labrador retriever, about 15 mg Compound 1 daily capsule and Rimadyl, after 3 weeks","started to move faster, then to run"
same,change in dog's condition,"[3]; Example 9, 85 lb Labrador retriever, about 15 mg Compound 1 daily capsule and Rimadyl, after two weeks",moved faster and was not bothered by its hips
same,change in dog's condition,"[3]; Example 9, 85 lb Labrador retriever, about 15 mg Compound 1 daily capsule, Rimadyl discontinued, 4th week",got up and moved rapidly with ease and it's running improved
same,change in dog's condition,"[3]; Example 11, 62 lb Australian cattle dog, about 10 mg Compound 1 daily capsule, after 2 weeks","stood well, limped less, and climbed the 3 stairs to and from the house"
same,change in dog's condition,"[3]; Example 11, 62 lb Australian cattle dog, about 10 mg Compound 1 daily capsule, after 3 weeks",trotted and climbed 5 stairs
same,change in dog's condition,"[3]; Example 11, 62 lb Australian cattle dog, about 10 mg Compound 1 daily capsule, after 4 weeks",condition was further improved
same,change in dog's condition,"[3]; Example 11, 62 lb Australian cattle dog, after 5 months untreated, about 10 mg Compound 1 daily capsule, after one week","stood longer, walked, and enjoyed the outdoors"
same,number of dogs for which improvement was evident,[3]; of 5 dogs given Compound 1,4 dogs
"CC(C(=O)O)c1ccc2c(c1)[nH]c1ccc(Cl)cc12 (stereo not shown) [Rimadyl®, reference compound]",change in dog's condition,"[3]; Example 9, 85 lb Labrador retriever, arthritis of the hips, Rimadyl alone before Compound 1",slightly improved the dog's condition
